Measured values published in US20250144186A1, “NOVEL THERAPEUTIC USES OF GARDNERELLA ENDOLYSINS” (priority 2022, published 2025).
In brackets after ≈: the same amount, converted by molar mass. Where two headings read alike, the source gives them in different places.

How the values were obtained:
Gardnerella swidsinskii = test: microbe, parasite or virus in culture; assay type: cell-based; details: for MIC before passaging: 48 h incubation
Six Gardnerella strains = test: microbe, parasite or virus in culture; assay type: cell-based, Gardnerella spp.
Method: (§1) The final volume of the reaction was 100 µL and the reactions were performed in triplicate in 384-well plates. The OD600 was measured using a microplate reader (Tecan, Grodig, Austria) to generate timepoint 0 h baseline values. The reactions were incubated anaerobically for 24 h, then the OD600 was measured again, and the MIC was measured as the lowest concentration with OD600<0.14. […] This process was repeated for a maximum of 25 rounds. In each round, the input CFU/mL was determined by quantitative plating.
(§2) In parallel, one representative of G. vaginalis (ATCC 14018^T) was passaged 25 times with PM-477 (H2B10).

[1] = tested on: Gardnerella strains from vaginal swabs of BV patients; test: MIC and MBC99.5 on 18 in-house BV patient isolates; assay type: cell-based, Gardnerella spp.
Method: The minimum inhibitory concentration (MIC), which is a standard measure of the activity of antimicrobials, was determined according to the Clinical and Laboratory Standards Institute protocol (2018) Methods for Antimicrobial Susceptibility Testing of Anaerobic Bacteria (Carpenter et al., 2018). […] Controls for growth in the absence of antimicrobials were also included. OD600 was recorded by a microplate reader (Tecan, Grodig, Austria) after incubation at 37° C. for 48 h or, for some fast-growing strains, after incubation for 24 h. Absence of growth was defined as OD600≤0.14. […] MIC readout and MBC99.5 spotting were performed after 72 h incubation for H2B10B11.

[2] = 0.75% MDZ vaginal gel over 16 weeks, cited from earlier work
[3] = tested on: Gardnerella strains grown as biofilm; test: MBEC on pre-formed biofilms, summary over ancestor strains; assay type: cell-based, Gardnerella spp.; details: 40-72 h old pre-formed biofilms
Method: Gardnerella spp. (see figures for strain specification) was resuspended in brain heart infusion broth supplemented with 2% (w/v) gelatin, 0.5% yeast extract (w/v), 0.1% starch (w/v) and 0.25% glucose (w/v) (sBHIG). Passaged strains were resuspended in unbuffered NYCB supplemented with 1% glucose (w/v) (sNYCB). The OD600 was set to 0.1 (approx. 10^7-10^8 CFU/mL) and the cell suspension was diluted 1:10 in growth medium as input for biofilm formation. A total of 200 μL of the respective bacterial suspensions was added to 96-well flat bottom plates (tissue-culture treated, Sigma-Aldrich). The biofilms were grown under anaerobic conditions at 37° C. for 40 to 72 hours, depending on the isolate. Subsequently, the supernatant was removed, and the biofilm was treated with antimicrobials dissolved in sBHIG (at pH 5 for treatment with PM-477 (H2B10), and unbuffered for treatment with antibiotics) in 100 μL and incubated anaerobically at 37° C. for another 24 hours. After the treatment, the biofilms were washed twice with 200 μL 1x PBS and dissolved by vigorous pipetting (40x up and down). Serial dilutions of the dissolved cells were spotted on chocolate agar plates. The plates were incubated anaerobically for two to three days and the minimum biofilm eradication concentration (MBEC) of the endolysin or the antibiotics in use were calculated. […]

[4] = tested on: G. vaginalis (ATCC 14018T); test: Serial passaging for resistance formation with PM-477; assay type: cell-based, Gardnerella vaginalis; details: G. vaginalis (ATCC 14018T) passaged 25 times with PM-477 (H2B10)
Method: as §1, §2

[5] = G. swidsinskii (BV7) UGent BV7.1
[6] = Gardnerella swidsinskii, N=4 strains

`Cc1ncc([N+](=O)[O-])n1CCO` [MDZ, metronidazole] showed an MBC99.5 (Gardnerella swidsinskii; [5]) greater than 512 µg/mL, an MIC90 (Gardnerella swidsinskii; Gardnerella swidsinskii) greater than 256 µg/mL and an MIC (Gardnerella swidsinskii; Gardnerella swidsinskii, 48 h, read-out: MIC before passaging, G. swidsinskii (GS 9838-1T), 48 h incubation) of 256 µg/mL (≈ 1500 µM). It also gave an MIC (Gardnerella swidsinskii; Gardnerella swidsinskii, 48 h, read-out: MIC before passaging, G. swidsinskii (UGent BV 7.1), 48 h incubation) of 256 µg/mL (≈ 1500 µM), an MIC (Gardnerella swidsinskii; Gardnerella swidsinskii, G. swidsinskii (BV7) UGent BV7.1, suspension, read-out: MIC) of 256 µg/mL (≈ 1500 µM) and an MIC (Gardnerella swidsinskii; Gardnerella swidsinskii, G. swidsinskii (BV139) UGent BV139.3, suspension, read-out: MIC) of 256 µg/mL (≈ 1500 µM). For the same molecule, the MIC (Gardnerella swidsinskii; Gardnerella swidsinskii, G. swidsinskii (Gs23) GS 10234, suspension) was 64 µg/mL (≈ 374 µM), the MIC (Gardnerella swidsinskii; Gardnerella swidsinskii, G. swidsinskii (Gs24) GS 9838-1(T), suspension, read-out: MIC) was 256 µg/mL (≈ 1500 µM) and the MBC (Gardnerella swidsinskii; Gardnerella swidsinskii, read-out: MBC99.5, G. swidsinskii (BV139) UGent BV139.3) was 256 µg/mL (≈ 1500 µM). The MBC (Gardnerella swidsinskii; Gardnerella swidsinskii, G. swidsinskii (Gs24) GS 9838-1(T), read-out: MBC99.5) was greater than 512 µg/mL, the MIC (Six Gardnerella strains; Gardnerella, read-out: MIC after 9 rounds of passaging, 4 out of 6 strains, maximal concentration in use) was greater than 512 µg/mL and the “pre-passaging MIC range” value (Six Gardnerella strains; six Gardnerella strains before passaging) was 8 to 256 µg/mL. The MIC ([1]; Gardnerella, 72 h, 18 in-house BV patient isolates, read-out: median MIC) was 64 µg/mL (≈ 374 µM), the MBC ([1]; Gardnerella, 18 in-house BV patient isolates, read-out: median MBC99.5) was 1540 µg/mL (≈ 8970 µM) and the “number of resistant isolates (MIC>32 μg/mL)” value ([1]; panel of 18 isolates from vaginal swabs of BV patients) was 10. The “probability of lasting cure” value ([2]; 12 weeks after end of therapy (week 28)) was 34% and the “probability of lasting cure” value ([2]; after 16 weeks) was 70%.

B1: PM-477: genetically engineered recombinant Gardnerella-specific endolysin, amino acid sequence SEQ ID NO: 1, His-tag cleaved off (protein)
chain: SKRGIDVSEWQGDIDFNAVKASGVEFVIIRAGYGIGCKDKWFEQNYRKAKTCGLDVGAYWYSYANSGFEAAEEAQSCVNMLSGKSFEYPVYFDLEEKSQLNRGRAFCDSLITGFCNKLESCGYYAGFYTSLSTANNLVSAHVRNRYALWIAQWNTHCSYQGSYGLWQYSSSGSVPGVAGRVDMDYAYVDYPSIIKNVGLNGYKNGGSYTAPQISSIDEVAREVINGDWGNGNERKQRLTSAGYDYASVQNKVNELLGVKAYRKSVDELAREVIRGTWGNGSTRKQRLTQAGYDYNAVQKRVNELL
modifications: His-tag cleaved off; H2B10
In the case of B1, the MBC99.5 (Gardnerella swidsinskii; [5]) is reported as 0.25 µg/mL, the MIC (Gardnerella swidsinskii; G. swidsinskii (BV7) UGent BV7.1, suspension) is reported as 0.25 µg/mL and the MBC99.5 (Gardnerella swidsinskii; G. swidsinskii (BV139) UGent BV139.3) is reported as 0.125 µg/mL. The MIC before passaging (Gardnerella swidsinskii; G. swidsinskii (GS 9838-1T)) was 0.03 µg/mL, the MBC99.5 (Gardnerella swidsinskii; G. swidsinskii (Gs23) GS 10234) was 0.125 µg/mL and the MIC (Gardnerella swidsinskii; G. swidsinskii (Gs23) GS 10234, suspension) was 0.063 µg/mL. It also gave an MBC99.5 (Gardnerella swidsinskii; G. swidsinskii (Gs24) GS 9838-1(T)) of 0.06 µg/mL, an MIC (Gardnerella swidsinskii; G. swidsinskii (Gs24) GS 9838-1(T), suspension) of 0.03 µg/mL and an MIC before passaging (Gardnerella swidsinskii; G. swidsinskii (UGent BV 7.1)) of 0.25 µg/mL. The MIC90 (Gardnerella swidsinskii; [6]) was 0.25 µg/mL, the “MIC Range” value (Gardnerella swidsinskii; [6]) was 0.03 to 0.25 µg/mL and the “MBEC, range over strains” value [3] was less than 2 to 32 µg/mL. For the same molecule, the “MIC after 25 rounds of passaging” value [4] was 8 µg/mL.
